Key:
[1] = target: T1, Phosphodiesterase-3 enzyme (PDE 3) (Oryctolagus cuniculus, UniProt G1ST54); assay: Test for phosphodiesterase-3 (PDE 3) activity; format: biochemical; settings: PDE 3 fraction from platelets of a rabbit
T1 construct: The supernatant was separated by DEAE-cellulose column chromatography (Whatman DE52 bead); from tissue; host or cells: rabbit platelets
T1 sequence (G1ST54 1-1128): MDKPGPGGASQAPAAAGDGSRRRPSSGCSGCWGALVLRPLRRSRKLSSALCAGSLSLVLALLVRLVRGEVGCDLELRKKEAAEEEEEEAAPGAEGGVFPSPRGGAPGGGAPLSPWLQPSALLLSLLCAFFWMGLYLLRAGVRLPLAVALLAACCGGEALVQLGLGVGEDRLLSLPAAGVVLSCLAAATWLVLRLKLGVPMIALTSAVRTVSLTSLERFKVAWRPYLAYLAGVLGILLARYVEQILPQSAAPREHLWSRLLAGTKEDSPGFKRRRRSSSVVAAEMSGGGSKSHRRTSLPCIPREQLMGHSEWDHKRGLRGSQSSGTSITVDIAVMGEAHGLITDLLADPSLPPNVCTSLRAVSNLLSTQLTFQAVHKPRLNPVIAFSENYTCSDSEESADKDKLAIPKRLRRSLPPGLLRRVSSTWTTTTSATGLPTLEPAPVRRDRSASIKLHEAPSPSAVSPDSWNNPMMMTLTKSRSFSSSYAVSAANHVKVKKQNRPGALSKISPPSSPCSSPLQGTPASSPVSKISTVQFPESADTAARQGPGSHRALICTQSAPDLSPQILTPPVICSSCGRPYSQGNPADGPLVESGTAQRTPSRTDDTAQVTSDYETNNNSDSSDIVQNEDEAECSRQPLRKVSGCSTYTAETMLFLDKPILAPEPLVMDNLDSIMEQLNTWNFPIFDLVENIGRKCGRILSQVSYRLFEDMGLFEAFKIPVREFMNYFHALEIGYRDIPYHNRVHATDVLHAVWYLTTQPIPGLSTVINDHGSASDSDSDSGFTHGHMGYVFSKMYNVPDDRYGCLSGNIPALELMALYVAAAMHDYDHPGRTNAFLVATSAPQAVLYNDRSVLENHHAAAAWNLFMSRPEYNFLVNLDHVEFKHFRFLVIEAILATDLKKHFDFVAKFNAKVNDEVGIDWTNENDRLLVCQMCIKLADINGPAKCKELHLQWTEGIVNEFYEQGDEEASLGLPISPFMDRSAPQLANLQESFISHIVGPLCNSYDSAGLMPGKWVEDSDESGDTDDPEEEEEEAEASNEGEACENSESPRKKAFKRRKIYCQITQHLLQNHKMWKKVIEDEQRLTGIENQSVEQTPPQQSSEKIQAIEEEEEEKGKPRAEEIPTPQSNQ
Procedure: Phosphodiesterase-3 enzyme (PDE 3) was separated from platelets of a rabbit. About 60 ml of blood was collected from a puncture of the abdominal artery of a rabbit in heparinized syringes. Platelet-rich plasma was harvested by centrifugation for 5 min at 450×g and further centrifuged for 15 min at 1,200×g to precipitate the platelets. The platelets were resuspended in homogenizing buffer (50 mM Tris-HCl, 1 mM MgCl2, pH 7.4), homogenized at 4° C. and ultrasonicated (30 sec/ml). The homogenized solution was centrifuged (105,000×g) for 1 hr at 4° C. to obtain the supernatant in which PDE was dissolved. The supernatant was separated by DEAE-cellulose column chromatography (Whatman DE52 bead) by using eluent (50 mM Tris-HCl, 3.75mM2-mercaptoethanol, pH 6.0) with concentration gradient of 0-1 M sodium acetate to elute PDE isozymes. The PDE activity was measured on the each column fraction by the following process to separate PDE 3 fraction and the inhibition for PDE 3 of the compounds of formula 1 was measured by using the fraction.
To 1.5 ml tube containing 100 ul of reaction mixture (15 mM Tris-HCl, 5 mM MgCl2, 0.5 mg/ml BSA, pH 7.4) were added appropriate amount of PDE 3 fraction and PDE inhibitor and the solution was mixed well. After [^3H]-cAMP or [^3H]-cGMP (500 nM, 2 uCi/ml) was added, the mixture was reacted in incubator of 30° C. for about 1 hour and the reaction was quenched by putting the tube into boiling water for about 45 seconds to 2 min. The tube was chilled in ice bath for about 5 min. To this tube was added snake venom (1 mg/ml, 100 ul) or 5′-nucleotidase (0.1 unit/tube) and the mixture was reacted in incubator of 37° C. for 10 min and chilled in ice bath. 3 times volume of methanol to the resin was added to the anion exchange resin (Bio-Rad resin, AG1-X2, 200-400 mesh) which had been already washed with 0.5 N HCl, H2O, 0.5 N NaOH, H2O, 0.5 N HCl and H2O in order and adjusted to pH 5. Then 1 ml of the pretreated resin was added to the each tube with vortexing. The mixture was left at 4° C. for 15 min with occasional vortexing and centrifuged (10,000 rpm) for about 5 min to sediment the resin. The supernatant (700 ul) was transferred to a liquid scintillation vial, and mixed with 10 ml of scintillation cocktail. After stabilizing the mixture by leaving it overnight, the radioactivity of the tube was measured by β-counter.

[2] = target: T2, Phosphodiesterase-5 enzyme (PDE 5) (Homo sapiens, UniProt O76074); assay: Test for phosphodiesterase-5 (PDE 5) activity; format: biochemical; settings: PDE 5 fraction from human corpus cavernosal tissues
T2 construct: separated by HPLC (Mono Q anion exchange column) with concentration gradient of 0-500 mM NaCl to elute PDE isozymes; from tissue; host or cells: human corpus cavernosal tissue

[3] = Acute oral toxicity test in rats; settings: SD, rat, in vivo, 1 g/kg; rats, oral single dose; read-out: lethal dose (LD50) of oral administration
rats = assay: Penile erection test using rats; format: in vivo, rat; settings: oral single dose 10 mg/kg in 0.5% methyl cellulose, observed for 2 hours

Row | SMILES | IC50 [1] [nM] | IC50 [2] [nM] | LD50 [3] [mg/kg] | PEI (penile erection index) (rats) | genital grooming (number of genital groomings) (rats)
1 | CCOc1ccc(S(=O)(=O)NCc2ccccc2)cc1-c1nc2c(CC(C)C)nn(C)c2c(=O)[nH]1 [Example 2, 5-[2-ethoxy-5-(benzylamidosulfonyl)phenyl]-1-methyl-3-isobutyl-1,6-dihydro-7H-pyrazolo(4,3-d)pyrimidin-7-one] | > 202000 | 10.8 | > 1000 | 533.3 ± 305.5 | 5.7 ± 2.5
2 | CCCOc1ccc(S(=O)(=O)NC(C)C)cc1-c1nc2c(CCC)nn(C)c2c(=O)[nH]1 [Example 3, 5-[2-propyloxy-5-(isopropylamidosulfonyl)phenyl]-1-methyl-3-propyl-1,6-dihydro-7H-pyrazolo(4,3-d)pyrimidin-7-one] | > 223000 | 5.36 | > 1000 | 233.3 ± 152.8 | 2.7 ± 2.1
3 | CCCCNS(=O)(=O)c1ccc(OCC)c(-c2nc3c(CCC)nn(C)c3c(=O)[nH]2)c1 [Example 9, 5-[2-ethoxy-5-(butylamidosulfonyl)phenyl]-1-methyl-3-propyl-1,6-dihydro-7H-pyrazolo(4,3-d)pyrimidin-7-one] | > 223000 | 10.7 | > 1000 | 200.0 ± 100.0 | 4.7 ± 1.2
4 | CCCc1nn(CC)c2c(=O)[nH]c(-c3cc(S(=O)(=O)Nc4ccc(F)cc4)ccc3OCC)nc12 [Example 33, 5-[2-ethoxy-5-(4-fluorophenylamidosulfonyl)phenyl]-1-ethyl-3-propyl-1,6-dihydro-7H-pyrazolo(4,3-d)pyrimidin-7-one] | 188000 | 19.7 | > 1000 | 233.3 ± 57.7 | 2.7 ± 0.6
5 | CCCc1nn(C)c2c(=O)[nH]c(-c3cc(S(=O)(=O)Nc4ccncc4)ccc3OCC)nc12 [Example 34, 5-[2-ethoxy-5-(4-pyridylamidosulfonyl)phenyl]-1-methyl-3-propyl-1,6-dihydro-7H-pyrazolo(4,3-d)pyrimidin-7-one] | 184000 | 3.44 | > 1000 | 166.7 ± 57.7 | 1.3 ± 0.6
6 | CCCc1nn(C)c2c(=O)[nH]c(-c3cc(S(=O)(=O)Nc4cccnc4)ccc3OCC)nc12 [Example 38, 5-[2-ethoxy-5-(3-pyridylamidosulfonyl)phenyl]-1-methyl-3-propyl-1,6-dihydro-7H-pyrazolo(4,3-d)pyrimidin-7-one] | 208000 | 8.07 | > 1000 | 233.3 ± 230.9 | 2.7 ± 2.9
7 | CCCOc1ccc(S(=O)(=O)Nc2cccnc2)cc1-c1nc2c(CCC)nn(C)c2c(=O)[nH]1 [Example 39, 5-[2-propyloxy-5-(3-pyridylamidosulfonyl)phenyl)-1-methyl-3-propyl-1,6-dihydro-7H-pyrazolo(4,3-d)pyrimidin-7-one] | 41700 | 1.16 | > 1000 | 166.7 ± 57.7 | 1.3 ± 1.5
8 | CCOc1ccc(S(=O)(=O)Nc2cccnc2)cc1-c1nc2c(CC(C)C)nn(C)c2c(=O)[nH]1 [Example 41, 5-[2-ethoxy-5-(3-pyridylamidosulfonyl)phenyl]-1-methyl-3-isobutyl-1,6-dihydro-7H-pyrazolo(4,3-d)pyrimidin-7-one] | 9930 | 2.28 | > 1000 | 177.8 ± 203.7 | 1.7 ± 1.5
9 | CCCc1nn(C)c2c(=O)[nH]c(-c3cc(S(=O)(=O)NCc4cccnc4)ccc3OCC)nc12 [Example 47, 5-[2-ethoxy-5-(3-pyridylmethylamidosulfonyl)phenyl]-1-methyl-3-propyl-1,6-dihydro-7H-pyrazolo(4,3-d)pyrimidin-7-one] | 20900 | 2.78 | > 1000 | 200.0 ± 100.0 | 3.0 ± 1.0
10 | CCCOc1ccc(S(=O)(=O)NCc2ccccn2)cc1-c1nc2c(CCC)nn(C)c2c(=O)[nH]1 [Example 52, 5-[2-propyloxy-5-(2-pyridylmethylamidosulfonyl)phenyl]-1-methyl-3-propyl-1,6-dihydro-7H-pyrazolo(4,3-d)pyrimidin-7-one] | > 201000 | 9.89 | > 1000 | 233.3 ± 57.7 | 3.0 ± 1.0
11 | CCCOc1ccc(S(=O)(=O)NC2CCN(C)C2)cc1-c1nc2c(CCC)nn(C)c2c(=O)[nH]1 (stereo not drawn) [Example 53, 5-[2-propyloxy-5-(1-methyl-3-pyrrolidinylamidosulfonyl)phenyl]-1-methyl-3-propyl-1,6-dihydro-7H-pyrazolo(4,3-d)pyrimidin-7-one] | > 205000 | 20.9 | > 1000 | 300.0 ± 200.0 | 2.7 ± 2.1
12 | CCCc1nn(CC)c2c(=O)[nH]c(-c3cc(S(=O)(=O)NCC4CCCN4C)ccc3OCC)nc12 (stereo not drawn) [Example 57] | 47700 | 33.3 |  | 131.3 ± 128.1 | 1.8 ± 1.3
13 | CCCc1nn(C)c2c(=O)[nH]c(-c3cc(S(=O)(=O)NCC4CCN(C)C4)ccc3OCC)nc12 (stereo not drawn) [Example 59] | 122000 | 140 |  | 150.0 ± 57.7 | 1.5 ± 0.6
14 | CCCc1nn(C)c2c(=O)[nH]c(-c3cc(S(=O)(=O)NCC4CCN(CC)C4)ccc3OCC)nc12 (stereo not drawn) [Example 63] | 52300 | 98.2 |  | 12.5 ± 25.0 | 1.5 ± 0.6
15 | CCCc1nn(CC)c2c(=O)[nH]c(-c3cc(S(=O)(=O)NCC4CCN(CC)C4)ccc3OCC)nc12 (stereo not drawn) [Example 65] | 32100 | 74.5 |  | 93.8 ± 94.4 | 1.8 ± 1.0
16 | CCCc1nn(CC)c2c(=O)[nH]c(-c3cc(S(=O)(=O)NCCC4CCCN4C)ccc3OCC)nc12 (stereo not drawn) [Example 69] | 76500 | 31.9 |  | 225.0 ± 95.7 | 2.3 ± 1.0

Reference: patent publication US6583147B1, “Pyrazolopyrimidinone derivatives for the treatment of impotence” (Dong A Pharm Co., Ltd., priority 1998, dated 2003)
